Read-outs that look alike come from different tables or passages of the source.
Molecular target: T1, Human CD73 (Homo sapiens, UniProt P21589)
T1 construct: purchased R&D Systems; host or cells: CHO cells
T1 sequence (P21589 27-549): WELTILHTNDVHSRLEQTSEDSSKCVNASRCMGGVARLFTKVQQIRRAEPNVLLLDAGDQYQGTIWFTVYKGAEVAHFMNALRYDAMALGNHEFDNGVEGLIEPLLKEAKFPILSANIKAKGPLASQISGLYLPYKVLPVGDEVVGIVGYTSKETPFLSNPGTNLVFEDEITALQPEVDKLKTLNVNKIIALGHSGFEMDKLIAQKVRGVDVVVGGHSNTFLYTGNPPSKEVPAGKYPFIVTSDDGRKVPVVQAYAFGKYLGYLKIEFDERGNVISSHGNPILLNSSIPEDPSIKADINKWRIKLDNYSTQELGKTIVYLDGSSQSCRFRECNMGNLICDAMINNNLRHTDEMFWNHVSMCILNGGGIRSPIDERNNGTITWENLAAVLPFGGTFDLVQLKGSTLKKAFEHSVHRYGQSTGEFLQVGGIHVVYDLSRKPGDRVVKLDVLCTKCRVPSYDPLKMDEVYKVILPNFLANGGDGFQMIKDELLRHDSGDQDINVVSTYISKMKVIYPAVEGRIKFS
Assay: CD73 Enzyme Assay
Format: biochemical

[1] = 0.25 nM hCD73, 25 μM AMP, kinetic read at 360 nm, read-out: CD73 Enzyme Assay IC50

IC50 [1] | Structure (SMILES) | IC50
> 1 µM | Nc1ncnc2c1ncn2[C@@H]1O[C@H](COCP(=O)(O)O)[C@@H](O)[C@H]1O [Compound 2, [(2R,3S,4R,5R)-5-(6-aminopurin-9-yl)-3,4-dihydroxy-tetrahydrofuran-2-yl]methoxymethyl-phosphonic acid] | 
> 1 µM | CNc1nc(NCc2ccccc2)c2ncn([C@@H]3O[C@H](COCP(=O)(O)O)[C@@H](O)[C@H]3O)c2n1 [Compound 5, [(2R,3S,4R,5R)-5-[6-(benzylamino)-2-(methylamino)purin-9-yl]-3,4-dihydroxy-tetrahydrofuran-2-yl]methoxymethyl-phosphonic acid] | 
> 1 µM | O=C(O)c1nc(NCc2ccccc2)c2ncn([C@@H]3O[C@H](COCP(=O)(O)O)[C@@H](O)[C@H]3O)c2n1 [Compound 6, 6-(benzylamino)-9-[(2R,3R,4S,5R)-3,4-dihydroxy-5-(phos-phonomethoxy-methyl)tetrahydro-furan-2-yl]purine-2-carboxylic acid] | 
 | CCOP(=O)(O)COC[C@H]1O[C@@H](n2cnc3c(NCc4ccccc4)ncnc32)[C@H](O)[C@@H]1O [Compound 7, [(2R,3S,4R,5R)-5-[6-(benzylamino)purin-9-yl]-3,4-dihydroxy-tetrahydrofuran-2-yl]-methoxymethyl-ethoxy-phosphinic acid] | > 1 µM
0.1 to 1 µM | O=P(O)(O)COC[C@H]1O[C@@H](n2cnc3c(NCc4ccccc4)nc(-c4ccccc4)nc32)[C@H](O)[C@@H]1O [Compound 8, [(2R,3S,4R,5R)-5-[6-(benzylamino)-2-phenyl-purin-9-yl]-3,4-dihydroxy-tetrahydrofuran-2-yl]methoxymethylphosphonic acid] | 
0.1 to 1 µM | O=P(O)(O)COC[C@H]1O[C@@H](n2cnc3c(NCc4ccccc4)nc(-c4cn[nH]c4)nc32)[C@H](O)[C@@H]1O [Compound 10, [(2R,3S,4R,5R)-5-[6-(benzylamino)-2-(1H-pyrazol-4-yl)purin-9-yl]-3,4-dihydroxy-tetrahydrofuran-2-yl]-methoxymethylphos-phonic acid] | 
> 1 µM | CNc1ncnc2c1ncn2[C@@H]1O[C@H](COCP(=O)(O)O)[C@@H](O)[C@H]1O [Compound 11, [(2R,3S,4R,5R)-3,4-dihydroxy-5-[6-(methylamino)purin-9-yl]tetrahydrofuran-2-yl]methoxymethyl-phosphonic acid] | 
> 1 µM | O=P(O)(O)COC[C@H]1O[C@@H](n2cnc3c(NCCO)ncnc32)[C@H](O)[C@@H]1O [Compound 13, [(2R,3S,4R,5R)-3,4-dihydroxy-5-[6-(2-hydroxyethylamino)-purin-9-yl]tetrahydro-furan-2-yl]methoxy-methylphosphonic acid] | 
> 1 µM | CC(C)Nc1nc(Cl)nc2c1ncn2[C@@H]1O[C@H](COCP(=O)(O)O)[C@H]2OC(C)(C)O[C@H]21 [Compound 14, [(3aR,4R,6R,6aR)-4-[2-chloro-6-(isopropyl-amino)purin-9-yl]-2,2-dimethyl-3a,4,6,6a-tetrahydrofuro[3,4-d] [1,3]dioxol-6-yl]-methoxymethylphos-phonic acid] | 
> 1 µM | CCNc1ncnc2c1ncn2[C@@H]1O[C@H](COCP(=O)(O)O)[C@@H](O)[C@H]1O [Compound 17, [(2R,3S,4R,5R)-5-[6-(ethylamino)purin-9-yl]-3,4-dihydroxy-tetrahydrofuran-2-yl]-methoxymethylphos-phonic acid] | 
> 1 µM | O=P(O)(O)COC[C@H]1O[C@@H](n2cnc3c(NCc4ccccn4)ncnc32)[C@H](O)[C@@H]1O [Compound 19, [(2R,3S,4R,5R)-3,4-dihydroxy-5-[6-(2-pyridylmethylamino)-purin-9-yl]tetrahydro-furan-2-yl]methoxy-methylphosphonic acid] | 
0.1 to 1 µM | O=P(O)(O)COC[C@H]1O[C@@H](n2cnc3c(NCc4ccccc4)nc(Cc4ccccc4)nc32)[C@H](O)[C@@H]1O [Compound 22, [(2R,3S,4R,5R)-5-[2-benzyl-6-(benzyl-amino)purin-9-yl]-3,4-dihydroxy-tetrahydro-furan-2-yl]methoxy-methylphosphonic acid] | 
> 1 µM | O=P(O)(O)COC[C@H]1O[C@@H](n2cnc3c(NC4(c5ccccc5)CC4)ncnc32)[C@H](O)[C@@H]1O [Compound 23] | 
> 1 µM | O=P(O)(O)COC[C@H]1O[C@@H](n2cnc3c(NC4CC4)ncnc32)[C@H](O)[C@@H]1O [Compound 24, [(2R,3S,4R,5R)-5-[6-(cyclopropylamino)-purin-9-yl]-3,4-dihydroxy-tetrahydro-furan-2-yl]methoxy-methylphosphonic acid] | 
> 1 µM | NCCNc1ncnc2c1ncn2[C@@H]1O[C@H](COCP(=O)(O)O)[C@@H](O)[C@H]1O [Compound 25, [(2R,3S,4R,5R)-5-[6-(2-aminoethylamino)-purin-9-yl]-3,4-dihydroxy-tetrahydro-furan-2-yl]methoxy-methylphosphonic acid] | 
> 1 µM | O=P(O)(O)COC[C@H]1O[C@@H](n2cnc3c(NCCCO)ncnc32)[C@H](O)[C@@H]1O [Compound 26, [(2R,3S,4R,5R)-3,4-dihydroxy-5-[6-(3-hydroxypropylamino)-purin-9-yl]tetrahydro-furan-2-yl]methoxy-methylphosphonic acid] | 

IC50 [1] | Structure (SMILES) | IC50
> 1 µM | O=P(O)(O)COC[C@H]1O[C@@H](n2cnc3c(NCc4cccnc4)ncnc32)[C@H](O)[C@@H]1O [Compound 27, [(2R,3S,4R,5R)-3,4-dihydroxy-5-[6-(3-pyridylmethylamino)-purin-9-yl]tetrahydro-furan-2-yl]methoxy-methylphosphonic acid] | 
> 1 µM | O=P(O)(O)COC[C@H]1O[C@@H](n2cnc3c(NCc4ccncc4)ncnc32)[C@H](O)[C@@H]1O [Compound 28, [(2R,3S,4R,5R)-3,4-dihydroxy-5-[6-(4-pyridylmethylamino)-purin-9-yl]tetrahydro-furan-2-yl]methoxy-methylphosphonic acid] | 
0.1 to 1 µM | O=P(O)(O)COC[C@H]1O[C@@H](n2cnc3c(NCCc4ccccc4)ncnc32)[C@H](O)[C@@H]1O [Compound 29, [(2R,3S,4R,5R)-3,4-dihydroxy-5-[6-(2-phenylethylamino)-purin-9-yl]tetrahydro-furan-2-yl]methoxy-methylphosphonic acid] | 
> 1 µM | O=P(O)(O)COC[C@H]1O[C@@H](n2cnc3c(Nc4ccccc4)ncnc32)[C@H](O)[C@@H]1O [Compound 30, [(2R,3S,4R,5R)-5-(6-anilinopurin-9-yl)-3,4-dihydroxy-tetrahydro-furan-2-yl]methoxy-methylphosphonic acid] | 
> 1 µM | CC(C)N(C)c1ncnc2c1ncn2[C@@H]1O[C@H](COCP(=O)(O)O)[C@@H](O)[C@H]1O [Compound 31] | 
> 1 µM | CC(C)(C)Nc1ncnc2c1ncn2[C@@H]1O[C@H](COCP(=O)(O)O)[C@@H](O)[C@H]1O [Compound 33, [(2R,3S,4R,5R)-5-[6-(tert-butylamino)purin-9-yl]-3,4-dihydroxy-tetrahydrofuran-2-yl]-methoxymethylphos-phonic acid] | 
0.1 to 1 µM | O=P(O)(O)COC[C@H]1O[C@@H](n2cnc3c(NC4CCC4)ncnc32)[C@H](O)[C@@H]1O [Compound 34, [(2R,3S,4R,5R)-5-[6-(cyclobutylamino)-purin-9-yl]-3,4-dihydroxy-tetrahydro-furan-2-yl]methoxy-methylphosphonic acid] | 
0.1 to 1 µM | O=P(O)(O)COC[C@H]1O[C@@H](n2cnc3c(NC4CCCCC4)ncnc32)[C@H](O)[C@@H]1O [Compound 35, [(2R,3S,4R,5R)-5-[6-(cyclohexylamino)-purin-9-yl]-3,4-dihydroxy-tetrahydro-furan-2-yl]methoxy-methylphosphonic acid] | 
> 1 µM | O=P(O)(O)COC[C@H]1O[C@@H](n2cnc3c2ncn2cnnc32)[C@H](O)[C@@H]1O [Compound 37] | 
> 1 µM | O=P(O)(O)COC[C@H]1O[C@@H](n2cnc3c2ncn2ccnc32)[C@H](O)[C@@H]1O [Compound 38] | 
> 1 µM | O=P(O)(O)COC[C@H]1O[C@@H](n2cnc3c(NCc4ccccc4)nc(C4CC4)nc32)[C@H](O)[C@@H]1O [Compound 39, [(2R,3S,4R,5R)-5-[6-(benzylamino)-2-cyclopropyl-purin-9-yl]-3,4-dihydroxy-tetrahydrofuran-2-yl]-methoxymethyl phos-phonic acid] | 
0.1 to 1 µM | C=Cc1nc(NC(C)C)c2ncn([C@@H]3O[C@H](COCP(=O)(O)O)[C@@H](O)[C@H]3O)c2n1 [Compound 40, [(2R,3S,4R,5R)-3,4-dihydroxy-5-[6-(iso-propylamino)-2-vinyl-purin-9-yl]tetrahydro-furan-2-yl]methoxy-methylphosphonic acid] | 
> 1 µM | CCc1nc(NC(C)C)c2ncn([C@@H]3O[C@H](COCP(=O)(O)O)[C@@H](O)[C@H]3O)c2n1 [Compound 41, [(2R,3S,4R,5R)-5-[2-ethyl-6-(isopropyl-amino)purin-9-yl]-3,4-dihydroxy-tetrahydro-furan-2-yl]methoxy-methylphosphonic acid] | 
> 1 µM | O=c1c2ncn([C@@H]3O[C@H](COCP(=O)(O)O)[C@@H](O)[C@H]3O)c2ncn1Cc1ccccc1 [Compound 42, [(2R,3S,4R,5R)-5-(1-benzyl-6-oxo-purin-9-yl)-3,4-dihydroxy-tetrahydrofuran-2-yl]-methoxymethylphos-phonic acid] | 
> 1 µM | CC(C)Oc1ncnc2c1ncn2[C@@H]1O[C@H](COCP(=O)(O)O)[C@@H](O)[C@H]1O [Compound 44, [(2R,3S,4R,5R)-3,4-dihydroxy-5-(6-isopropoxypurin-9-yl)tetrahydrofuran-2-yl]methoxymethylphosphonic acid] | 
